Structures are written as SMILES.

The target of this assay is Tyrosine-protein kinase ABL1 [T315I] (Homo sapiens, UniProt P00519, T315I). In words: Kinase Inhibition Assays.

The IC50 is the midpoint of a concentration-inhibition curve. The low end stands for inhibition by little substance, the high end for a need for much substance. `C=CC(=O)N1CCC(n2nc(C#Cc3cc(C(=O)Nc4ccc(CN5CCN(C)CC5)c(C(F)(F)F)c4)ccc3C)c3c(N)ncnc32)CC1` [US10266537, Compound 121] gave an IC50 of 0.133 µM. That is a sub-micromolar value.

Source of the values: BindingDB's records for patent US10266537 (St. Chuan University, 2019).
